# Source: patent US20110165136A1, “Novel Herbal Composition for Treatment of Psoriasis and Other Skin Disorders” (HIMALAYA GLOBAL HOLDINGS LTD., priority 2010, published 2011)
# System: Mouse tail
# Test: Topical anti-psoriatic activity by Mouse tail test
# Assay type: in vivo
# Conditions: follow up study, 0.005%
# Text: Pharmacological Screening of the Extracts and Oils for Topical Anti-Psoriatic Activity by Mouse Tail Test The composite extracts, oils blends and individual alcohol extracts were subjected to screening for evaluation of Anti-psoriatic activity by Mouse tail test and the results are summarized as FIG. 1-4.
smiles,measurement,value
C=C1/C(=C\C=C2/CCC[C@]3(C)[C@@H]([C@H](C)/C=C/[C@@H](O)C4CC4)CC[C@@H]23)C[C@@H](O)C[C@@H]1O [Calcipotriol],para to orthokeratosis conversion,not found to be statistically significant
